Measurements: patent US20070196406A1, “1,3-Dimethylbutyl carboxanilides for controlling undesirable micro-organisms” (priority 2003, published 2007)

Tested on: not listed separately
Test: logP determination by HPLC on a reversed-phase column (EEC Directive 79/831 Annex V.A8)
Format: physicochemical
Conditions: reversed-phase C18 HPLC column, pH 2.3, C 18 reversed phase, 43° C.
Experimental: The logP values given in the Preparation Examples and tables above are determined in accordance with EEC Directive 79/831 Annex V.A8 by HPLC (High Performance Liquid Chromatography) on a reversed-phase column (C 18). Temperature: 43° C.
The determination is carried out in the acidic range at pH 2.3 using the mobile phases 0.1% aqueous phosphoric acid and acetonitrile; linear gradient from 10% acetonitrile to 90% acetonitrile.
Calibration is carried out using unbranched alkan-2-ones (with 3 to 16 carbon atoms) with known logP values (determination of the logP values by the retention times using linear interpolation between two successive alkanones).

First: COc1nc(C)sc1C(=O)O [II-2]
Second: Cc1nc(OC(F)F)c(C(=O)O)s1 [II-7]
The chromatographic logP of the first is lower: 0.77 for the first, 1.29 for the second.

Going from `COC(=O)c1cn(C)nc1C(Cl)Cl` [XII-1] to `COC(=O)c1cn(C)nc1C=O` [Example X-1], the chromatographic logP falls from 1.8 to 0.46.

`CC(C)CC(C)c1ccccc1NC(=O)c1cn(C)nc1C(Cl)Cl` (stereo not shown) [Example 1, 3-(dichloromethyl)-1-methyl-N-[2-(1,3-dimethylbutyl)phenyl]-1H-pyrazole-4-carboxamide] and `CC(C)CC(C)c1ccccc1NC(=O)c1cn(C)nc1C=O` (stereo not shown) [Example 2, N-[2-(1,3-dimethylbutyl)phenyl]-3-formyl-1-methyl-1H-pyrazole-4-carboxamide] are within 0.2 log units of each other in chromatographic logP: 3.74 for the first, 3.64 for the second.

Going from `COc1nc(C)sc1C(=O)Nc1ccccc1C(C)CC(C)C` (stereo not shown) [Example 3, N-[2-(1,3-dimethylbutyl)phenyl]-4-methoxy-2-methyl-1,3-thiazole-5-carboxamide] to `Cc1nc(O)c(C(=O)Nc2ccccc2C(C)CC(C)C)s1` (stereo not shown) [Example 4, N-[2-(1,3-dimethylbutyl)phenyl]-4-hydroxy-2-methyl-1,3-thiazole-5-carboxamide], the chromatographic logP falls from 4.45 to 2.68.

First: Cn1cc(C(=O)O)c(C=O)n1 [XI-1]
Second: CCOC(=O)c1cn(C)nc1OC [II-4]
The chromatographic logP of the first is lower: -0.19 for the first, 1.14 for the second.

Compared with `CCOC(=O)c1sc(C)nc1OC` [II-1], `CCOC(=O)c1sc(C)nc1OC(F)F` [II-6] is higher in chromatographic logP: 1.9 for the first, 2.54 for the second.

Tested on: Podosphaera leucotricha
Test: Podosphaera test (apple)/protective
Format: in vivo
Conditions: 240 h, apple plants, protective spray, evaluation 10 days after inoculation, read-out: Efficacy in %
Experimental: Podosphaera Test (Apple)/Protective
• Solvents: 24.5 parts by weight of acetone • 24.5 parts by weight of dimethylacetamide • Emulsifier: 1 part by weight of alklylaryl polyglycol ether
(§1) To produce a suitable preparation of active compound, 1 part by weight of active compound is mixed with the stated amounts of solvents and emulsifier, and the concentrate is diluted with water to the desired concentration.
To test for protective activity, young plants are sprayed with the preparation of active compound at the stated application rate. After the spray coating has dried on, the plants are inoculated with an aqueous spore suspension of the apple mildew pathogen Podosphaera leucotricha. The plants are then placed in a greenhouse at about 23° C. and a relative atmospheric humidity of about 70%.
(§2) Evaluation is carried out 10 days after the inoculation. 0% means an efficacy which corresponds to that of the control, whereas an efficacy of 100% means that no infection is observed.

Going from `CC(C)CC(C)c1cc(F)ccc1NC(=O)c1cn(C)nc1C(F)(F)F` (stereo not shown) [drawing 87] to `CC(C)CC(C)c1cc(F)ccc1NC(=O)c1cn(C)nc1C(F)F` (stereo not shown) [drawing 88], the pest or weed control at 100 g/ha rises from 88% to 100%.

`CC(C)CC(C)c1ccccc1NC(=O)c1cn(C)nc1Cl` (stereo not shown) [drawing 85] and `CC(C)CC(C)c1ccccc1NC(=O)c1cn(C)nc1C(C)F` (stereo not shown) [drawing 86] are the same in pest or weed control at 100 g/ha: 100% for the first, 100% for the second.

`CC1=C(C(=O)Nc2ccc(F)cc2C(C)CC(C)C)SCCO1` (stereo not shown) [drawing 93] and `Cc1sccc1C(=O)Nc1ccc(F)cc1C(C)CC(C)C` (stereo not shown) [drawing 89] are the same in pest or weed control at 100 g/ha: 100% for the first, 100% for the second.

`Cc1sccc1C(=O)Nc1ccccc1C(C)CC(C)C` (stereo not shown) [drawing 83] and `CC(C)CC(C)c1ccccc1NC(=O)c1scnc1Cl` (stereo not shown) [drawing 82] are the same in pest or weed control at 100 g/ha: 100% for the first, 100% for the second.

`Cc1nc(C(F)(F)F)c(C(=O)Nc2ccc(F)cc2C(C)CC(C)C)s1` (stereo not shown) [drawing 90] and `Cc1nc(C(F)F)c(C(=O)Nc2ccc(F)cc2C(C)CC(C)C)s1` (stereo not shown) [drawing 92] are the same in pest or weed control at 100 g/ha: 100% for the first, 100% for the second.

Compared with `CC(C)CC(C)c1ccccc1NC(=O)c1ccoc1C(F)(F)F` (stereo not shown) [drawing 84], `Cc1ccsc1C(=O)Nc1ccc(F)cc1C(C)CC(C)C` (stereo not shown) [drawing 91] is higher in pest or weed control at 100 g/ha: 98% for the first, 99% for the second.

Tested on: Venturia inaequalis
Test: Venturia test (apple)/protective
Format: in vivo
Conditions: 240 h, apple plants, protective spray, evaluation 10 days after inoculation, read-out: Efficacy in %
Experimental: Venturia Test (Apple)/Protective
(§3) • Solvents: 24.5 parts by weight of acetone • 24.5 parts by weight of dimethylacetamide • Emulsifier: 1 part by weight of alkylaryl polyglycol ether
as §1
To test for protective activity, young plants are sprayed with the preparation of active compound at the stated application rates. After the spray coating has dried on, the plants are inoculated with an aqueous conidia suspension of the apple scab pathogen Venturia inaequalis and then remain in an incubation cabinet about 20° C. and 100% relative atmospheric humidity for 1 day.
The plants are then placed in a greenhouse at about 21° C. and a relative atmospheric humidity of about 90%.
as §2

Compared with `Cc1sccc1C(=O)Nc1ccc(F)cc1C(C)CC(C)C` (stereo not shown) [drawing 101], `Cc1ccsc1C(=O)Nc1ccc(F)cc1C(C)CC(C)C` (stereo not shown) [drawing 103] is higher in pest or weed control at 100 g/ha: 94% for the first, 100% for the second.

`Cc1nc(C(F)F)c(C(=O)Nc2ccc(F)cc2C(C)CC(C)C)s1` (stereo not shown) [drawing 104] and `Cc1nc(C(F)(F)F)c(C(=O)Nc2ccc(F)cc2C(C)CC(C)C)s1` (stereo not shown) [drawing 102] are the same in pest or weed control at 100 g/ha: 100% for the first, 100% for the second.

Compared with `CC(C)CC(C)c1ccccc1NC(=O)c1ccoc1C(F)(F)F` (stereo not shown) [drawing 96], `Cc1sccc1C(=O)Nc1ccccc1C(C)CC(C)C` (stereo not shown) [drawing 95] is higher in pest or weed control at 100 g/ha: 96% for the first, 100% for the second.

`CC(C)CC(C)c1cc(F)ccc1NC(=O)c1cn(C)nc1C(F)F` (stereo not shown) [drawing 100] and `CC(C)CC(C)c1cc(F)ccc1NC(=O)c1cn(C)nc1C(F)(F)F` (stereo not shown) [drawing 99] are the same in pest or weed control at 100 g/ha: 100% for the first, 100% for the second.

Compared with `CC1=C(C(=O)Nc2ccc(F)cc2C(C)CC(C)C)SCCO1` (stereo not shown) [drawing 105], `CC(C)CC(C)c1ccccc1NC(=O)c1scnc1Cl` (stereo not shown) [drawing 94] is lower in pest or weed control at 100 g/ha: 100% for the first, 99% for the second.

`CC(C)CC(C)c1ccccc1NC(=O)c1cn(C)nc1C(C)F` (stereo not shown) [drawing 98] and `CC(C)CC(C)c1ccccc1NC(=O)c1cn(C)nc1Cl` (stereo not shown) [drawing 97] are the same in pest or weed control at 100 g/ha: 100% for the first, 100% for the second.

Tested on: Botrytis cinerea
Test: Botrytis test (bean)/protective
Format: in vivo
Conditions: 48 h, bean plants, protective spray, 100 g/ha, evaluation two days after inoculation, read-out: Efficacy in %
Experimental: Botrytis Test (Bean)/Protective
as §3
(§4) To produce a suitable preparation of active compound, 1 part by weight of active compound is mixed with the stated amounts of solvent and emulsifier, and the concentrate is diluted with water to the desired concentration.
To test for protective activity, young plants are sprayed with the preparation of active compound at the stated application rate. After the spray coating has dried on, 2 small pieces of agar colonized by Botrytis cinerea are placed under each leaf. The inoculated plants are placed in a dark chamber at about 20° C. and 100% relative atmospheric humidity.
Two days after the inoculation, the size of the infected areas on the leaves is evaluated. 0% means an efficacy which corresponds to that of the control, whereas an efficacy of 100% means that no infection is observed.

First: CC(C)CC(C)c1ccccc1NC(=O)c1cn(C)nc1Cl (stereo not shown) [drawing 108]
Second: CC(C)CC(C)c1ccccc1NC(=O)c1scnc1Cl (stereo not shown) [drawing 106]
The pest or weed control at 100 g/ha of the first is higher: 100% for the first, 99% for the second.

For `Cc1sccc1C(=O)Nc1ccccc1C(C)CC(C)C` (stereo not shown) [drawing 107], the pest or weed control at 100 g/ha was 97%.

Same assay, conditions: 48 h, bean plants, protective spray, 500 g/ha, evaluation two days after inoculation, read-out: Efficacy in %

Going from `CC(C)CC(C)c1cc(F)ccc1NC(=O)c1cn(C)nc1C(F)(F)F` (stereo not shown) [drawing 110] to `CC(C)CC(C)c1cc(F)ccc1NC(=O)c1cn(C)nc1C(F)F` (stereo not shown) [drawing 111], the pest or weed control at 500 g/ha rises from 99% to 100%.

First: Cc1sccc1C(=O)Nc1ccc(F)cc1C(C)CC(C)C (stereo not shown) [drawing 112]
Second: Cc1ccsc1C(=O)Nc1ccc(F)cc1C(C)CC(C)C (stereo not shown) [drawing 114]
The pest or weed control at 500 g/ha of the first is higher: 100% for the first, 98% for the second.

`Cc1nc(C(F)(F)F)c(C(=O)Nc2ccc(F)cc2C(C)CC(C)C)s1` (stereo not shown) [drawing 113] and `Cc1nc(C(F)F)c(C(=O)Nc2ccc(F)cc2C(C)CC(C)C)s1` (stereo not shown) [drawing 115] are the same in pest or weed control at 500 g/ha: 100% for the first, 100% for the second.

Going from `CC1=C(C(=O)Nc2ccc(F)cc2C(C)CC(C)C)SCCO1` (stereo not shown) [drawing 116] to `CC(C)CC(C)c1ccccc1NC(=O)c1cn(C)nc1C(C)F` (stereo not shown) [drawing 109], the pest or weed control at 500 g/ha falls from 100% to 99%.

Tested on: Puccinia recondita
Test: Puccinia test (wheat)/protective
Format: in vivo
Conditions: 240 h, wheat plants, protective spray, evaluation 10 days after inoculation, read-out: Efficacy in %
Experimental: Puccinia Test (Wheat)/Protective
Solvent: 50 parts by weight of N,N-dimethylacetamide
Emulsifier: 1 part by weight of alkylaryl polyglycol ether
as §4
To test for protective activity, young plants are sprayed with the preparation of active compound at the stated application rate. After the spray coating has dried on, the plants are sprayed with a conidia suspension of Puccinia recondita. The plants remain in an incubation cabinet at 20° C. and 100% relative atmospheric humidity for 48 hours.
The plants are then placed in a greenhouse at a temperature of about 20° C. and a relative atmospheric humidity of 80% to promote the development of rust pustules.
as §2

`Cc1ccsc1C(=O)Nc1ccc(F)cc1C(C)CC(C)C` (stereo not shown) [drawing 128] and `Cc1sccc1C(=O)Nc1ccc(F)cc1C(C)CC(C)C` (stereo not shown) [drawing 125] are the same in pest or weed control at 500 g/ha: 100% for the first, 100% for the second.

`CC(C)CC(C)c1cc(F)ccc1NC(=O)c1cccnc1Cl` (stereo not shown) and `CC(C)CC(C)c1cc(F)ccc1NC(=O)c1cn(C)nc1Cl` (stereo not shown) are the same in pest or weed control at 500 g/ha: 100% for the first, 100% for the second.

`Cc1nc(C(F)F)c(C(=O)Nc2ccc(F)cc2C(C)CC(C)C)s1` (stereo not shown) [drawing 129] and `Cc1nc(C(F)(F)F)c(C(=O)Nc2ccc(F)cc2C(C)CC(C)C)s1` (stereo not shown) [drawing 127] are the same in pest or weed control at 500 g/ha: 100% for the first, 100% for the second.

`CC1=C(C(=O)Nc2ccc(F)cc2C(C)CC(C)C)SCCO1` (stereo not shown) [drawing 130] and `Cc1occc1C(=O)Nc1ccc(F)cc1C(C)CC(C)C` (stereo not shown) are the same in pest or weed control at 500 g/ha: 100% for the first, 100% for the second.

`CC(C)CC(C)c1cc(F)ccc1NC(=O)c1cn(C)nc1C(F)F` (stereo not shown) [drawing 124] and `CC(C)CC(C)c1cc(F)ccc1NC(=O)c1cn(C)nc1C(F)(F)F` (stereo not shown) [drawing 121] are the same in pest or weed control at 500 g/ha: 100% for the first, 100% for the second.

`CC(C)CC(C)c1ccccc1NC(=O)c1cn(C)nc1Cl` (stereo not shown) [drawing 120] and `Cc1sccc1C(=O)Nc1ccccc1C(C)CC(C)C` (stereo not shown) [drawing 118] are the same in pest or weed control at 500 g/ha: 100% for the first, 100% for the second.

`Cc1nc(Cl)sc1C(=O)Nc1ccccc1C(C)CC(C)C` (stereo not shown) and `CC(C)CC(C)c1ccccc1NC(=O)c1ccoc1C(F)(F)F` (stereo not shown) [drawing 119] are the same in pest or weed control at 500 g/ha: 100% for the first, 100% for the second.
